Measured values reported in PubChem BioAssay AID2060511 (Molecular Pharmacology Branch, DTP, NCI, 2025).
pIC50: −log10 of the molar value.

Test system: 422866-222-R5-J1-PDC spheroids with HUVEC/MSC, viability
Assay: Anticancer human tumor 422866-222-R5-J1-PDC patient-derived pancreatic adenocarcinoma cell line growth inhibition [GQUAD]
Conditions: for pIC50: curve of first compound; for viability, T/C: stronger effect = lower value
Method in brief: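 Tumor cells were grown as complex spheroids with HUVEC endothelial cells and mesenchymal stem cells as stroma. G-quadruplex stabilizers were combined with targeted agents over half-log dilutions from near the clinical Cmax, or from 10 microM.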

[1] = second compound 0.0316 µM, first compound 0.0316 µM
[2] = second compound 0.0316 µM, first compound 0.1 µM
[3] = second compound 0.0316 µM, first compound 0.316 µM
[4] = second compound 0.0316 µM, first compound 1 µM
[5] = second compound 0.0316 µM, first compound 3.16 µM
[6] = second compound 0.0316 µM, first compound 10 µM
[7] = second compound 0.1 µM, first compound 0.0316 µM
[8] = second compound 0.1 µM, first compound 0.1 µM
[9] = second compound 0.1 µM, first compound 0.316 µM
[10] = second compound 0.1 µM, first compound 1 µM
[11] = second compound 0.1 µM, first compound 3.16 µM
[12] = second compound 0.1 µM, first compound 10 µM
[13] = second compound 0.316 µM, first compound 0.0316 µM
[14] = second compound 0.316 µM, first compound 0.1 µM
[15] = second compound 0.316 µM, first compound 0.316 µM
[16] = second compound 0.316 µM, first compound 1 µM
[17] = second compound 0.316 µM, first compound 3.16 µM
[18] = second compound 0.316 µM, first compound 10 µM
[19] = second compound 1 µM, first compound 0.0316 µM
[20] = second compound 1 µM, first compound 0.1 µM
[21] = second compound 1 µM, first compound 0.316 µM
[22] = second compound 1 µM, first compound 1 µM
[23] = second compound 1 µM, first compound 3.16 µM
[24] = second compound 1 µM, first compound 10 µM
[25] = second compound 3.16 µM, first compound 0.0316 µM
[26] = second compound 3.16 µM, first compound 0.1 µM
[27] = second compound 3.16 µM, first compound 0.316 µM
[28] = second compound 3.16 µM, first compound 1 µM
[29] = second compound 3.16 µM, first compound 3.16 µM
[30] = second compound 3.16 µM, first compound 10 µM
[31] = second compound 10 µM, first compound 0.0316 µM
[32] = second compound 10 µM, first compound 0.1 µM
[33] = second compound 10 µM, first compound 0.316 µM
[34] = second compound 10 µM, first compound 1 µM
[35] = second compound 10 µM, first compound 3.16 µM
[36] = second compound 10 µM, first compound 10 µM
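Note: spheroids exposed to compounds for seven days before reading.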
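Throughout, for viability, T/C: percent viability relative to DMSO vehicle control taken as 100%.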

Cc1cccc(N(C)C(=O)C2C(O)CCN2c2nc(C)cc(C(F)(F)F)c2C#N)c1 (stereo not drawn) + CN(C)c1ccc(Nc2c3ccc(NC(=O)CCN4CCCC4)cc3nc3cc(NC(=O)CCN4CCCC4)ccc23)cc1
pIC50 (second compound 0.0316 µM): < 5.00
pIC50 (second compound 0.1 µM): < 5.00
pIC50 (second compound 0.316 µM): < 5.00
pIC50 (second compound 1 µM): < 5.00
pIC50 (second compound 3.16 µM): < 5.00
pIC50 (second compound 10 µM): < 5.00
viability, T/C [1]: 119%
viability, T/C [2]: 98.6%
viability, T/C [3]: 104%
viability, T/C [4]: 88.3%
viability, T/C [5]: 96.6%
viability, T/C [6]: 107%
viability, T/C [7]: 92.1%
viability, T/C [8]: 81%
viability, T/C [9]: 105%
viability, T/C [10]: 80.1%
viability, T/C [11]: 102%
viability, T/C [12]: 99.5%
viability, T/C [13]: 97.8%
viability, T/C [14]: 69.4%
viability, T/C [15]: 80.6%
viability, T/C [16]: 86.2%
viability, T/C [17]: 103%
viability, T/C [18]: 111%
viability, T/C [19]: 84.4%
viability, T/C [20]: 86.1%
viability, T/C [21]: 80.7%
viability, T/C [22]: 91.7%
viability, T/C [23]: 101%
viability, T/C [24]: 93.2%
viability, T/C [25]: 77.9%
viability, T/C [26]: 70.4%
viability, T/C [27]: 79.7%
viability, T/C [28]: 85.6%
viability, T/C [29]: 88.8%
viability, T/C [30]: 93.6%
viability, T/C [31]: 72.6%
viability, T/C [32]: 90.5%
viability, T/C [33]: 98.3%
viability, T/C [34]: 82.4%
viability, T/C [35]: 82.4%
viability, T/C [36]: 85%

CC[C@@]1(O)C(=O)OCc2c1cc1n(c2=O)Cc2cc3c(CN(C)C)c(O)ccc3nc2-1 + CN(C)c1ccc(Nc2c3ccc(NC(=O)CCN4CCCC4)cc3nc3cc(NC(=O)CCN4CCCC4)ccc23)cc1
pIC50 (second compound 0.0316 µM): 7.03
pIC50 (second compound 0.1 µM): < 6.50
pIC50 (second compound 0.316 µM): 7.05
pIC50 (second compound 1 µM): 6.87
pIC50 (second compound 3.16 µM): 7.07
pIC50 (second compound 10 µM): 6.76
viability, T/C (second compound 0.0316 µM, first compound 0.000999 µM): 99.1%
viability, T/C (second compound 0.0316 µM, first compound 0.00316 µM): 95.8%
viability, T/C (second compound 0.0316 µM, first compound 0.00999 µM): 96%
viability, T/C [1]: 76%
viability, T/C (second compound 0.0316 µM, first compound 0.0999 µM): 47.3%
viability, T/C [3]: 49.7%
viability, T/C (second compound 0.1 µM, first compound 0.000999 µM): 87.2%
viability, T/C (second compound 0.1 µM, first compound 0.00316 µM): 104%
viability, T/C (second compound 0.1 µM, first compound 0.00999 µM): 98%
viability, T/C [7]: 64.3%
viability, T/C (second compound 0.1 µM, first compound 0.0999 µM): 50.9%
viability, T/C [9]: 48.7%
viability, T/C (second compound 0.316 µM, first compound 0.000999 µM): 90.9%
viability, T/C (second compound 0.316 µM, first compound 0.00316 µM): 78.6%
viability, T/C (second compound 0.316 µM, first compound 0.00999 µM): 95.2%
viability, T/C [13]: 65.1%
viability, T/C (second compound 0.316 µM, first compound 0.0999 µM): 48.3%
viability, T/C [15]: 48.6%
viability, T/C (second compound 1 µM, first compound 0.000999 µM): 96.8%
viability, T/C (second compound 1 µM, first compound 0.00316 µM): 92.9%
viability, T/C (second compound 1 µM, first compound 0.00999 µM): 78.6%
viability, T/C [19]: 69.8%
viability, T/C (second compound 1 µM, first compound 0.0999 µM): 56.5%
viability, T/C [21]: 35.8%
viability, T/C (second compound 3.16 µM, first compound 0.000999 µM): 84.1%
viability, T/C (second compound 3.16 µM, first compound 0.00316 µM): 79.2%
viability, T/C (second compound 3.16 µM, first compound 0.00999 µM): 87.8%
viability, T/C [25]: 72.5%
viability, T/C (second compound 3.16 µM, first compound 0.0999 µM): 46.1%
viability, T/C [27]: 46.7%
viability, T/C (second compound 10 µM, first compound 0.000999 µM): 77.5%
viability, T/C (second compound 10 µM, first compound 0.00316 µM): 96.3%
viability, T/C (second compound 10 µM, first compound 0.00999 µM): 91.8%
viability, T/C [31]: 69.8%
viability, T/C (second compound 10 µM, first compound 0.0999 µM): 61.4%
viability, T/C [33]: 40.3%

COc1cccc2c1C(=O)c1c(O)c3c(c(O)c1C2=O)CC(O)(C(=O)CO)CC3OC1CC(N)C(O)C(C)O1 (stereo not drawn) + Cc1cnc(CNC(=O)c2c(=O)c3ccc(N4CCCN(C)CC4)nc3n3c2sc2ccccc23)cn1
pIC50 (second compound 0.0316 µM): 6.01
pIC50 (second compound 0.1 µM): 6.02
pIC50 (second compound 0.316 µM): 5.93
pIC50 (second compound 1 µM): 5.89
pIC50 (second compound 3.16 µM): 5.85
pIC50 (second compound 10 µM): 5.95
viability, T/C [1]: 100%
viability, T/C [2]: 65.7%
viability, T/C [3]: 78.6%
viability, T/C [4]: 46.5%
viability, T/C [5]: 33.9%
viability, T/C [6]: 25.7%
viability, T/C [7]: 89.3%
viability, T/C [8]: 69.5%
viability, T/C [9]: 78.9%
viability, T/C [10]: 48.7%
viability, T/C [11]: 34.8%
viability, T/C [12]: 30.1%
viability, T/C [13]: 83.3%
viability, T/C [14]: 81.8%
viability, T/C [15]: 73%
viability, T/C [16]: 51.5%
viability, T/C [17]: 37.3%
viability, T/C [18]: 30%
viability, T/C [19]: 73.3%
viability, T/C [20]: 86.8%
viability, T/C [21]: 80.1%
viability, T/C [22]: 54.8%
viability, T/C [23]: 33.7%
viability, T/C [24]: 29.5%
viability, T/C [25]: 95.4%
viability, T/C [26]: 80.4%
viability, T/C [27]: 79.2%
viability, T/C [28]: 54.7%
viability, T/C [29]: 36.5%
viability, T/C [30]: 34.2%
viability, T/C [31]: 74.2%
viability, T/C [32]: 82.6%
viability, T/C [33]: 75%
viability, T/C [34]: 50.4%
viability, T/C [35]: 35.6%
viability, T/C [36]: 26.7%

COc1ncnc(C2CC2)c1-c1ncc2cnn(Cc3ccc(-c4nc(C(F)(F)F)cn4C(C)C)cc3)c2n1 + Cc1cnc(CNC(=O)c2c(=O)c3ccc(N4CCCN(C)CC4)nc3n3c2sc2ccccc23)cn1
pIC50 (second compound 0.0316 µM): < 5.00
pIC50 (second compound 0.1 µM): < 5.00
pIC50 (second compound 0.316 µM): < 5.00
pIC50 (second compound 1 µM): < 5.00
pIC50 (second compound 3.16 µM): < 5.00
pIC50 (second compound 10 µM): < 5.00
viability, T/C [1]: 86.6%
viability, T/C [2]: 79.2%
viability, T/C [3]: 84.4%
viability, T/C [4]: 74.3%
viability, T/C [5]: 91.5%
viability, T/C [6]: 93.6%
viability, T/C [7]: 99.4%
viability, T/C [8]: 74.7%
viability, T/C [9]: 82.9%
viability, T/C [10]: 88.8%
viability, T/C [11]: 101%
viability, T/C [12]: 86.5%
viability, T/C [13]: 84.4%
viability, T/C [14]: 72.4%
viability, T/C [15]: 78.8%
viability, T/C [16]: 80.4%
viability, T/C [17]: 93.2%
viability, T/C [18]: 94%
viability, T/C [19]: 63%
viability, T/C [20]: 80.1%
viability, T/C [21]: 84.3%
viability, T/C [22]: 85.4%
viability, T/C [23]: 82.3%
viability, T/C [24]: 98.8%
viability, T/C [25]: 71.8%
viability, T/C [26]: 80.4%
viability, T/C [27]: 82.7%
viability, T/C [28]: 71.9%
viability, T/C [29]: 98.1%
viability, T/C [30]: 98%
viability, T/C [31]: 70.3%
viability, T/C [32]: 80.7%
viability, T/C [33]: 88.6%
viability, T/C [34]: 72.8%
viability, T/C [35]: 84.7%
viability, T/C [36]: 88.2%
